Results on four molecules are retold here after patent US20150057325A1, “COMPOUNDS CAPABLE OF MODULATING/PRESERVING ENDOTHELIAL INTEGRITY FOR USE IN PREVENTION OR TREATMENT OF ACUTE TRAUMATIC COAGULOPATHY AND RESUSCITATED CARDIAC ARREST” (priority 2012, published 2015).

For data set [1] the following is noted: in vivo; cited from earlier work.
For data set [2], the system named is whole blood. Put plainly: Whole blood viscoelastical assay (Thrombelastography, TEG) in healthy volunteers infused with flolan. In kind it is in vivo, human. To be noted: 6 healthy volunteers, 4 ng/kg/min i.v., after 60 and 120 min infusion; kaolin. The procedure:
Six healthy volunteers were administered flolan (Prostacycline) intravenously at a dose of 4 ng/kg/min for 2 h. Blood samples for whole blood viscoelastical assay (Thrombelastography [TEG]) and whole blood platelet aggregation (Multiplate) were obtained before infusion of Flolan, after 60 min infusion of Flolan and after 120 min infusion of Flolan. With regard to the TEG assay this was performed as recommended by the manufacturer and 340 μl are mixed with 20 μl CaCl 0.2 M (final concentration 11.1 mM in the cup) and kaolin at 37° C. after which the haemostatic activity is recorded as depicted in FIG. 1.

For data set [3] the following is noted: human, in vivo. As for the experimental part: Ninety-four critically ill patients admitted to the intensive care unit (ICU) underwent haemofiltration with or without concomitant Flolan (prostacycline) treatment. None of the patients were suffering from Acute Traumatic Coagulopathy nor from sequelae to cardiac arrest. Flolan was administered in a low dose in the filters to prevent these from clotting and consequently there was only a minor spill over of Flolan to the systemic circulation. The patients were retrospectively reviewed.
However, patients in the flolan group were more severely ill as evaluated by a lower platelet count at start of hemofiltration, a higher frequency of severe thrombocytopenia, a higher frequency of DIC diagnoses, a higher maximum SOFA score and a higher SOFA score at hemofiltration initiation as compared to the patients receiving non-flolan.

Data set [4] has as its system whole blood platelet aggregation. Put plainly: Whole blood impedance aggregometry (Multiplate) in healthy volunteers infused with flolan. The class given is in vivo, human. To be noted: 6 healthy volunteers, 4 ng/kg/min i.v., after 60 and 120 min infusion. The procedure:
(§1) Six healthy volunteers were administered flolan (Prostacycline) intravenously at a dose of 4 ng/kg/min for 2 h. Blood samples for whole blood viscoelastical assay (Thrombelastography [TEG]) and whole blood platelet aggregation (Multiplate) were obtained before infusion of Flolan, after 60 min infusion of Flolan and after 120 min infusion of Flolan.
Whole blood impedance aggregometry was analyzed by the Multiple Platelet function Analyzer (MultiPlate® analyzer). Analysis employing various platelet agonists: ASPItest (activation by arachidonic acid), COLtest (activation by collagen through the collagen receptor), TRAPtest (activation by TRAP-6 stimulates the thrombin receptor on the platelet surface and ADPtest (activation by ADP stimulates platelet activation by the ADP receptors).
MultiPlate continuously records platelet aggregation. The increase of impedance by the attachment of platelets onto the Multiplate sensors is transformed to arbitrary aggregation units (AU) and plotted against time as depicted in FIG. 2.

The subject of data set [5] is endothelium. Put plainly: Plasma biomarkers (ELISA) of endothelial, glycocalyx, necrosis and anticoagulation status in healthy volunteers after Flolan infusion. To be noted: 8 healthy volunteers, 4 ng/kg/min i.v. for 2 h. In kind it is in vivo, human. The procedure:
Eight healthy volunteers were administered Flolan® (Prostacyclin) intravenously at a dose of 4 ng/kg/min for 2 h. Blood samples were analyzed for plasma biomarkers indicative of endothelial cell (thrombomodulin, PAI-1) and glycocalyx (syndecan-1) activation and/or damage, cellular necrosis (histone-complexed DNA fragments, HMGB1) and anticoagulation (protein C, antithrombin, TFPI) at the following time points: Before the infusion (0 h), immediately after ceasing the infusion (2 h) and then 4 h, 5 h, 6 h, 8 h and 24 h after starting the infusion. The concentration of the individual biomarkers in plasma was analyzed by commercially available ELISA kits according to the manufactures recommendations. Paired t-tests with p-values <0.05 were considered significant.
On the technique in general: An ELISA detects its analyte on a solid surface through an enzyme-linked reagent.

A short description of data set [6]: Blood pressure and heart rate in healthy volunteers during intravenous flolan infusion. In kind it is in vivo, human. The following applies: 4 ng/kg/min i.v. for 2 h, any time point. The procedure:
as §1

With `CC#CCC(C)[C@H](O)/C=C/[C@@H]1[C@H]2c3cccc(CCCC(=O)O)c3O[C@H]2C[C@H]1O` (mixture of isomers) [Beraprost, beraprost], in data set [1], the half time is 35 to 40 min.
On to `CCCCC[C@H](O)/C=C/[C@@H]1[C@H]2C/C(=C/CCCC(=O)O)O[C@H]2C[C@H]1O` [Flolan, epoprostenol sodium], for which the “TEG values (R, Angle, MA), baseline vs. samples during infusion” value in data set [2] is “No significant difference”. In addition, in data set [3], the “Platelet count (difference before vs. after haemofiltration)” value is given as “+14”; the “haemostatic competence as evaluated by transfusion requirements” value is on record as “does not negatively influence”; the “total transfusion requirements and specifically of FFP during hemofiltration” value is “increased”. Besides, in data set [4], the “Multiplate values (ASPI, COL, ADP, TRAP), baseline vs. samples during infusion” value was “no significant difference”. Besides, in data set [5], the “cell necrosis biomarker HMGB1” value is on record as “did not influence”, the “cell necrosis biomarker histone-complexed DNA fragments” value was “did not influence”, the “circulating level of PAI-1” value is recorded as “declined” and the “circulating level of TFPI (affected or not)” value is “did not”. For the same molecule, in data set [5], the “circulating level of antithrombin” value was “decreased” and the “glycocalyx shedding (syndecan-1)” value was “did not induce or influence”. Moreover, in data set [5] (5 h after starting infusion, p=0.056), the “HMGB1 at 5 h” value is reported as “tendency towards a reduction”. Besides, the “circulating level of thrombomodulin” value in data set [5] (effect continuing for several hours after ceasing infusion) is given as “marked decrease”. Moreover, in data set [5] (in the hours after ceasing infusion), the “circulating level of Protein C” value is recorded as “decreased”. In addition, the half time in data set [1] is 0.5 to 3 min. Also, in data set [6], the “blood pressure, change from baseline” value is “did not change” and the “heart rate, change from baseline” value is on record as “did not change”.
`CC#CCC(C)[C@H](O)/C=C/[C@@H]1[C@H]2C/C(=C/CCCC(=O)O)C[C@H]2C[C@H]1O` (some centres unmarked) [Iloprost, iloprost]: the half time in data set [1] is 20 to 30 min.
As to `CCCCC[C@H](O)CC[C@@H]1[C@H]2Cc3cccc(OCC(=O)O)c3C[C@H]2C[C@H]1O` [Treprostinil, treprostinil], in data set [1], the half time entry is recorded as “less than 4 hours”.
